Results: patent US20230066946A1, “1,5-DIPHENYLPYRAZOLYL-3-OXYALKYL ACIDS AND 1-PHENYL-5-THIENYLPYRAZOLYL-3-OXYALKYL ACIDS AND THE USE THEREOF FOR CONTROL OF UNWANTED PLANT GROWTH” (Bayer Aktiengesellschaft, priority 2019, published 2023)

Columns and labels:
AVEFA = test: Post-emergence herbicidal action against AVEFA; format: in vivo, Avena fatua; settings: 1280 g/ha, post-emergence at one-leaf stage, rated visually after about 3 weeks vs untreated controls
Protocol: (§1) [table] Seeds of mono- and dicotyledonous weed plants are placed in plastic pots in sandy loam soil (twin sowing with one species each of mono- or dicotyledonous weed plants per pot), covered with soil and cultivated in a greenhouse under controlled growth conditions. 2 to 3 weeks after sowing, the test plants are treated at the one-leaf stage. The compounds of the invention, formulated in the form of wettable powders (WP) or as emulsion concentrates (EC), are applied to the green parts of the plants as aqueous suspension or emulsion with addition of 0.5% additive at a water application rate equivalent to 600 litres per hectare. After the test plants have been kept in the greenhouse under optimum growth conditions for about 3 weeks, the activity of the preparations is rated visually in comparison to untreated controls. For example, 100% activity=the plants have died, 0% activity=like control plants. Tables 5.1-5.16 below show the effects of selected compounds of the general formula (I) according to Tables 1 to 3 on various harmful plants at an application rate corresponding to 1280 or 320 g/ha, which have been obtained by the aforementioned experimental method.

SETVI [1] = test: Post-emergence herbicidal action against SETVI; format: in vivo, Setaria viridis; settings: 1280 g/ha, post-emergence at one-leaf stage, rated visually after about 3 weeks vs untreated controls
Method in brief: (§2)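 Visual scoring, where 100% = dead and 0% = like untreated plants, was done about 3 weeks after treatment. Dose was 1280 or 320 g/ha, delivered as aqueous WP/EC suspension or emulsion with 0.5% additive at 600 L/ha. Pot-grown weeds in sandy loam were treated post-emergence at one leaf, 2-3 weeks post-sowing.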

AMARE [2] = test: Post-emergence herbicidal action against AMARE; format: in vivo, Amaranthus retroflexus; settings: visual rating about 3 weeks after treatment
Method in brief: as §2

PHBPU [3] = test: Post-emergence herbicidal action against PHBPU; format: in vivo, Pharbitis purpurea; settings: 320 g/ha, visual rating about 3 weeks after treatment
Method in brief: as §2

AMARE [4] = test: Pre-emergence herbicidal action against AMARE; format: in vivo, Amaranthus retroflexus; settings: scored visually after about 3 weeks vs untreated controls; for Pre-emergence action at 320 g/ha against AMARE in %: 100% = plants have died, 0% = like control plants; for Pre-emergence action against AMARE in %: 1280 g/ha
Method in brief: (§3)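 Visual percent activity (100% = plants dead, 0% = like control) scored about 3 weeks after pre-emergence treatment in greenhouse. Compounds as WP or EC, applied to covering soil surface with 0.5% additive, 600 L/ha water, at 1280 or 320 g/ha.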

MATIN [5] = test: Pre-emergence herbicidal action against MATIN; format: in vivo, Matricaria inodora; settings: 1280 g/ha, scored visually after about 3 weeks vs untreated controls
Method in brief: as §3

STEME [6] = test: Post-emergence herbicidal action against STEME; format: in vivo, Stellaria media; settings: visual rating about 3 weeks after treatment
Method in brief: as §2

VIOTR [7] = test: Post-emergence herbicidal action against VIOTR; format: in vivo, Viola tricolor; settings: 320 g/ha, visual rating about 3 weeks after treatment
Method in brief: as §2

CYPES = test: Pre-emergence herbicidal action against CYPES; format: in vivo, Cyperus esculentus; settings: scored visually after about 3 weeks vs untreated controls, 100% = plants have died, 0% = like control plants
Excerpt: (§4) Seeds of mono- and dicotyledonous weed plants are placed in plastic pots in sandy loam soil (doubly sown with one species each of mono- or dicotyledonous weed plants per pot) and covered with soil. The compounds of the invention, formulated in the form of wettable powders (WP) or as emulsion concentrates (EC), are then applied onto the surface of the covering soil as aqueous suspension or emulsion with addition of 0.5% additive at a water application rate equivalent to 600 litres per hectare. After the treatment, the pots are placed in a greenhouse and kept under good growth conditions for the trial plants. After about 3 weeks, the effect of the preparations is scored visually in comparison with untreated controls as percentages. For example, 100% activity=the plants have died, 0% activity=like control plants. [table] Tables 4.1-4.15 below show the effects of selected compounds of the general formula (I) according to Tables 1 to 3 on various harmful plants at an application rate corresponding to 1280 or 320 g/ha, which have been obtained by the aforementioned experimental method.

VERPE [8] = test: Pre-emergence herbicidal action against VERPE; format: in vivo, Veronica persica; settings: 320 g/ha, scored visually after about 3 weeks vs untreated controls
Method in brief: as §3

STEME [9] = test: Pre-emergence herbicidal action against STEME; format: in vivo, Stellaria media; settings: 1280 g/ha, scored visually after about 3 weeks vs untreated controls
Method in brief: as §3

MATIN [10] = test: Post-emergence herbicidal action against MATIN; format: in vivo, Matricaria inodora; settings: visual rating about 3 weeks after treatment
Method in brief: as §2

PHBPU [11] = test: Pre-emergence herbicidal action against PHBPU; format: in vivo, Pharbitis purpurea; settings: 1280 g/ha, scored visually after about 3 weeks vs untreated controls
Excerpt: as §4

VERPE [12] = test: Post-emergence herbicidal action against VERPE; format: in vivo, Veronica persica; settings: 320 g/ha, visual rating about 3 weeks after treatment
Method in brief: as §2

SETVI [13] = test: Pre-emergence herbicidal action against SETVI; format: in vivo, Setaria viridis; settings: 1280 g/ha, scored visually after about 3 weeks vs untreated controls
Method in brief: as §3

ECHCG [14] = test: Pre-emergence herbicidal action against ECHCG; format: in vivo, Echinochloa crus-galli; settings: scored visually after about 3 weeks vs untreated controls, 100% = plants have died, 0% = like control plants
Method in brief: as §3

ALOMY = test: Post-emergence herbicidal action against ALOMY; format: in vivo, Alopecurus myosuroides; settings: 1280 g/ha, post-emergence at one-leaf stage, rated visually after about 3 weeks vs untreated controls
Protocol: as §1

ECHCG [15] = test: Post-emergence herbicidal action against ECHCG; format: in vivo, Echinochloa crus-galli; settings: 1280 g/ha, post-emergence at one-leaf stage, rated visually after about 3 weeks vs untreated controls
Method in brief: as §2

harmful plants = test: Pre-emergence herbicidal action, summary of Tables 4.1-4.15; format: in vivo; settings: result in words
Excerpt: as §4, with “plants.” for “plants. [table] Tables 4.1-4.15 below show the effects of selected compounds of the general formula (I) according to Tables 1 to 3 on various harmful plants at an application rate corresponding to 1280 or 320 g/ha, which have been obtained by the aforementioned experimental method.”
Tables 4.1-4.15 below show the effects of selected compounds of the general formula (I) according to Tables 1 to 3 on various harmful plants at an application rate corresponding to 1280 or 320 g/ha, which have been obtained by the aforementioned experimental method.
For example, compounds no. I-008, I-056, I-057, I-061, I-067, I-070 and I-072 applied by the pre-emergence method have very good action (80% to 100% herbicidal action) against harmful plants such as Alopecurus myosuroides, Amaranthus retroflexus, Matricaria inodora, Polygonum convolvulus, Setaria viridis and Stellaria media at an application rate of 1.28 kg of active substance or less per hectare.

POLCO = test: Post-emergence herbicidal action against POLCO; format: in vivo, Polygonum convolvulus; settings: 320 g/ha, visual rating about 3 weeks after treatment
Method in brief: as §2

VIOTR [16] = test: Pre-emergence herbicidal action against VIOTR; format: in vivo, Viola tricolor; settings: 1280 g/ha, scored visually after about 3 weeks vs untreated controls
Method in brief: as §3

| SMILES | Post-emergence action against AVEFA in % (AVEFA) [%] | Post-emergence action against AMARE in % (AMARE [2]; 1280 g/ha) [%] | Post-emergence action against PHBPU in % (PHBPU [3]) [%] | Pre-emergence action at 320 g/ha against AMARE in % (AMARE [4]) [%] | Pre-emergence action against AMARE in % (AMARE [4]) [%] | Pre-emergence action against MATIN in % (MATIN [5]) [%] | Post-emergence action against STEME in % (STEME [6]; 320 g/ha) [%] | Post-emergence action against STEME in % (STEME [6]; 1280 g/ha) [%] | Post-emergence action against VIOTR in % (VIOTR [7]) [%] | Post-emergence action against AMARE in % (AMARE [2]; 320 g/ha) [%] | Pre-emergence action against VERPE in % (VERPE [8]) [%] | Pre-emergence action against STEME in % (STEME [9]) [%] | Post-emergence action against MATIN in % (MATIN [10]; 320 g/ha) [%] | Post-emergence action against MATIN in % (MATIN [10]; 1280 g/ha) [%] | Post-emergence action against VERPE in % (VERPE [12]) [%] | Pre-emergence action against SETVI in % (SETVI [13]) [%] | Pre-emergence action against VIOTR in % (VIOTR [16]) [%] | further results |
| --- | --- | --- | --- | --- | --- | --- | --- | --- | --- | --- | --- | --- | --- | --- | --- | --- | --- | --- |
| COC(=O)COc1nn(-c2ccc(F)cc2)c(-c2ccc(F)cc2)c1C#N [I-009] | 80 | 80 |  |  |  |  |  |  |  |  |  |  |  |  |  |  |  | Post-emergence action against SETVI in % (SETVI [1]): 80% |
| COC(=O)COc1nn(-c2cccc(F)c2)c(-c2ccc(F)cc2)c1C#N [I-012] | 80 | 80 | 80 | 100 | 100 | 100 | 80 | 80 | 80 | 80 |  |  |  |  |  |  |  | Pre-emergence action at 1280 g/ha against CYPES in % (CYPES): 100% |
| COC(=O)COc1nn(-c2ccccc2F)c(-c2ccccc2)c1Cl [I-015] |  | 80 | 80 | 90 | 90 | 90 |  |  |  | 80 | 90 | 90 | 90 | 90 | 90 | 90 |  | Pre-emergence action against PHBPU in % (PHBPU [11]): 100% |
| COC(=O)COc1nn(-c2ccccc2F)c(-c2ccccc2)c1C#N [I-022] | 80 | 80 |  | 100 | 100 | 90 | 80 | 80 |  | 80 | 100 | 90 | 80 | 80 | 80 | 100 | 90 | Pre-emergence action at 1280 g/ha against ECHCG in % (ECHCG [14]): 80%; Post-emergence action against ALOMY in % (ALOMY): 80%; Post-emergence action against ECHCG in % (ECHCG [15]): 80%; herbicidal efficacy against harmful plants in the case of pre-emergence treatment (harmful plants): good herbicidal efficacy; Pre-emergence action at 1280 g/ha against CYPES in % (CYPES): 100%; Post-emergence action against POLCO in % (POLCO): 80%; Post-emergence action against SETVI in % (SETVI [1]): 80% |
| COC(=O)COc1nn(-c2ccc(F)cc2)c(-c2ccc(F)c(F)c2)c1Cl [I-025] | 80 | 80 |  | 90 | 90 |  |  |  | 80 | 80 | 80 |  |  | 80 | 80 | 80 |  |  |
| COC(=O)COc1nn(-c2ccc(F)cc2)c(-c2ccc(F)c(F)c2)c1C#N [I-036] | 80 |  | 80 |  | 80 |  | 80 | 80 | 80 |  |  |  | 80 | 80 | 80 | 80 |  |  |
| COC(=O)COc1nn(-c2cccc(Cl)c2)c(-c2ccc(F)c(F)c2)c1C#N [I-051] | 80 |  | 80 |  | 90 |  |  | 80 | 90 |  |  |  | 90 | 90 | 80 |  | 90 | Post-emergence action against ALOMY in % (ALOMY): 80%; Post-emergence action against POLCO in % (POLCO): 80% |
| C#Cc1c(OCC(=O)OC)nn(-c2cccc(F)c2)c1-c1cccc(F)c1 [I-069] |  | 90 | 80 | 90 | 90 | 90 |  | 80 |  |  |  | 90 |  |  |  | 90 | 100 | Pre-emergence action at 1280 g/ha against ECHCG in % (ECHCG [14]): 80%; Pre-emergence action against PHBPU in % (PHBPU [11]): 80%; herbicidal efficacy against harmful plants in the case of pre-emergence treatment (harmful plants): good herbicidal efficacy |
